Source: patent US7094869B2, “Low molecular weight peptidomimetic growth hormone secretagogues” (Genentech, Inc., priority 1994, dated 2006)
Where two headings read alike, the source gives them in different places. Non-standard residues stand in square brackets, D forms with d. Residues, ends and D or L forms follow the SMILES beside them. ξ: configuration not given here. dNMe2Nal = CN[C@H](Cc1ccc2ccccc2c1)C(=O)O; 1Nal = N[C@@H](Cc1cccc2ccccc12)C(=O)O; 2Nal = N[C@@H](Cc1ccc2ccccc2c1)C(=O)O; d2Nal = N[C@H](Cc1ccc2ccccc2c1)C(=O)O; d(hPhe) = N[C@H](CCc1ccccc1)C(=O)O; ξ2Nal = NC(Cc1ccc2ccccc2c1)C(=O)O; αMeF = C[C@](N)(Cc1ccccc1)C(=O)O; β3hF = N[C@H](CC(=O)O)Cc1ccccc1; Inp = O=C(O)C1CCNCC1; ξK = NCCCCC(N)C(=O)O; Ava = NCCCCC(=O)O; GABA = NCCCC(=O)O; βAla = NCCC(=O)O

Key:
[1] = Combination GHRP and IGF-1 treatment of obese Zucker Diabetic Fatty (ZDF) rats; assay type: in vivo, rat
Description: Ten lean ZDF rats served as an additional control group.
This GHRP was given by sc. injection twice daily, each dose of 100 μl therefore containing 50 μg/injection or 100 μg/day.
Recombinant human IGF-1 (rhIGF-1) at 13.8 mg/ml in acetate buffer was loaded into osmotic minipumps (Alza, Palo Alto, model 2ML4, pump rate 2.29 μl/hr for 28 days, fill volume 2064 μl). Other pumps were filled with acetate buffer. […] The delivered dose of rhIGF-1 was therefore 758 μg/day. Recombinant human growth hormone (rhGH, Lot R9092AX, Genentech Inc.) was diluted in sterile water to 2.5 g/l and a 100 μl injection given twice daily (250 μg/injection, or 500 μg/day).
The next day the osmotic pumps were inserted into rats. […] All rats not receiving rhIGF-1 containing pumps were implanted with pumps delivering the acetate buffer excipient.
On day 24 blood was withdrawn after a 4 hour fast and 1.5 U/kg of regular insulin was injected i.p. and a second blood sample taken 30 minutes later. The rats were then sacrificed using carbon dioxide, bled from the heart, and organs taken. Serum glucose was measured by standard automated procedures.
Data are presented as mean±standard error (SE) of the mean with 8 rats per group.

[2] = molecular target: T1, rat pituitary cells (Rattus norvegicus, UniProt O08725)
Method in brief: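 Primary rat anterior pituitary cells, cultured three days in DME low glucose/10% FBS, were washed, pre-incubated twice for 15 min, then challenged 15 min with test compounds (DMSO ≤0.1%) at 37 °C. Released GH was measured by two-site ELISA; EC50 came from 4-parameter fits, mean of three to four independent determinations.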

[3] = molecular target: T1, rat pituitary cells; test: Rat “pit” cell challenges: combinations with GHRP-6/GHRH, desensitization, somatostatin suppression, GHRP antagonist; assay type: cell-based; details: for GH response compared with control / GH release after sequential 15 min incubations with fresh compound (desensitization): 100 nM; for GH release in combination with GHRH: GHRP 100 nM plus GHRH 10 or 100 nM; for GH release in combination with GHRP-6: both at 100 nM; for GH release in the presence of 20 nM somatostatin: coincubation with 20 nM somatostatin; for GH release after sequential 15 min incubations with fresh compound (desensitization): three sequential 15 min incubations
Description: Dispersion: Adult female Sprague-Dawley (160-180 g., Charles River) rats were group-caged in a 12:12 light:dark cycle with food and water available ad libitum. Pituitaries from ten rats were removed, the posterior pituitary discarded and the anterior pituitary placed in Hanks' Balanced Salt Solution (HBSS: without calcium chloride, w/o magnesium chloride, w/o magnesium sulfate; Gibco) containing 20 mM HEPES (Gibco) and 100 U/ml penicillin streptomycin (PS: JRH Biosciences). Under sterile conditions, pituitaries were rinsed twice then minced into small fragments with a razor blade. Fragments were resuspended in 5 ml of HBSS/HEPES containing 20 mg collagenase (Serva 17449) and 200 ml of 1 mg/ml DNase (Sigma) for a 40 min. incubation in a 37° C. gyrotory water bath shaker (New Brunswick Scientific Model G76; setting 10). After the incubation, fragments were triturated to yield small clumps and single cells. The cells were centrifuged 1000× g for 5 min, resuspended, counted and plated at a final cell concentration of 100,000 cells/ml. Incubation media was DME low glucose media w/NaHCO3 (Gibco) containing 20 mM hepes, 100 U/ml PS and 10% FBS (Hyclone A-111-L). Cells were plated at 0.5 ml per well in 48 well plates (Falcon) and incubated at 37° C. in 5% C02 for three days. […] The highest concentration of DMSO in media was 0.1%. Stock solutions (1 mM) of rat GHRH, somatostatin (Sigma) and GHRP antagonist HwkWfK were made fresh in media and diluted appropriately. The media used in all challenges and washing steps was DME low glucose with 20 mM Hepes, 100 U/ml PS, 10% FBS. Media was warmed to 37° C. and gassed by placing it into the incubator prior to challenge. On day three, the media was discarded and fresh media (approximately 1 ml) added for the first of three washes. After the last wash, the plate was placed back in the incubator for a 15 min pre-incubation. Then cells were washed 2× (with warmed and gassed media) and fresh 0.5 ml media were added for the second 15 min. pre-incubation. After the second pre-incubation cells were washed 2× as above and 0.5 ml of control and test solutions were added for a final 15 min incubation. After this incubation, the media were removed for subsequent GH ELISA. GH ELISA: A two-site ELISA was used to determine rat GH concentration in the media. Briefly, goat anti-rat GH antibody (lot#19164-20) was used to coat Nunc immunoplates overnight. After blocking and washing, standard (rat GH reference preparation: Parlow) and challenge media is diluted 1:20 prior to GH assay were added for a 1 hr room temperature incubation. STATISTICS: The mean for each group was determined and analyzed by one-way analysis of variance with a post-hoc Student-Newman-Keuls. Significance is defined as P<0.05. The EC50 was calculated using a 4-parameter curve-fit program (Kaleidagraph). Three to four independent EC50s were used to derive the mean and SEM.

[4] = tested on: growth hormone secretion; test: GHRP induced growth hormone secretion, intravenous administration (Rat IV); assay type: in vivo; details: serum GH 10 min after injection; for RAT IV ED50: iv injection
Method in brief: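 Female Sprague Dawley rats (24-30 days, 50-90 g) under intraperitoneal pentobarbitone received graded intravenous tail-vein peptide doses in pH 5.0 sodium acetate/mannitol buffer 20 min post-anaesthesia. Blood by cardiac puncture 10 min after dosing; serum GH measured by rat GH ELISA in duplicate.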

[5] = read-out: EC50 of the representative GH dose response, single representative experiment, 15 min exposure
[6] = read-out: mean EC50, mean ± SE of independent EC50s
[7] = read-out: PIT Cell EC50, Table III, formula IV compounds, GH release, 15 min incubation
[8] = read-out: PIT Cell EC50, Table IV, formula III compounds, GH release, 15 min incubation
[9] = read-out: PIT Cell EC50, Table V, formula II compounds, GH release, 15 min incubation

T1 sequence (O08725 whole entry): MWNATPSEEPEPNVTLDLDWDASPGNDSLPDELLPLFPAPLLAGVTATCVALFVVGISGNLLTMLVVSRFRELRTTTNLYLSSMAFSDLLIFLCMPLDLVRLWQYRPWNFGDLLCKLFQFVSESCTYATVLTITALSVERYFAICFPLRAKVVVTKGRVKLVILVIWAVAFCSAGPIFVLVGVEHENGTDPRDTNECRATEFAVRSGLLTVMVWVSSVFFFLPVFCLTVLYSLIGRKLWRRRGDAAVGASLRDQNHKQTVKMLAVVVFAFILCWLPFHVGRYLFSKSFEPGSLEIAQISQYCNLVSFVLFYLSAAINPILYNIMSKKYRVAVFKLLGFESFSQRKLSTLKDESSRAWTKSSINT

## rhGH: Recombinant human growth hormone (Lot R9092AX, Genentech Inc.)
[1]; Day 2, obese ZDF male rats, GHRP 100 μg/d sc injection, rhIGF-1 758 μg/d pump, rhGH 500 μg/d
  body weight gain: 13.6 ± 2.5 g
[1]; rat, in vivo
  blood glucose: 725±30 mg %
  fasting blood glucose: 504±38 mg %
  serum insulin: 48 ± 6 ng/mL

## NC(=O)CN(CCc1ccccc1)C(=O)[C@@H](Cc1ccc2ccccc2c1)NC(=O)[C@@H](Cc1ccc2ccccc2c1)NC(=O)C1CCNCC1 [(inip) b b feg amide, (inip)-DβNal-DβNal-(N-2-phenylethyl-Gly) amide]
[2]; ratio of pit cell EC50s
  fold more potent than GHRP-6: ~25 fold
[2]; [5]
  EC50: 0.09 nM
[2]; [6]
  EC50: 0.25 ± 0.19 nM
[3]
  GH response compared with control: significantly greater than control
  GH release in combination with GHRH: synergistic
  GH release in combination with GHRP-6: not synergistic
  GH release in the presence of 20 nM somatostatin: totally suppressed
  GH release after sequential 15 min incubations with fresh compound (desensitization): markedly decreased
[4]; Table IV
  RAT IV ED50: 1 µg

## O=C(N[C@H](Cc1ccc2ccccc2c1)C(=O)N[C@@H](CO)Cc1c[nH]c2ccccc12)C1CCNCC1 [(inip) b wol, (inip)-DβNal-(D-Tryptophanol)]
[2]; [5]
  EC50: 3.9 nM
[2]; [6]
  EC50: 10.6 ± 6.2 nM
[3]
  GH response compared with control: significantly greater than control
  GH release in combination with GHRH: synergistic
  GH release in combination with GHRP-6: not synergistic
  GH release in the presence of 20 nM somatostatin: totally suppressed
  GH release after sequential 15 min incubations with fresh compound (desensitization): no significant release of GH
[4]; Table V
  RAT IV ED50: 0.8 µg

## NCCCC[C@H](NC(=O)[C@H](Cc1ccccc1)NC(=O)[C@@H](Cc1ccc2ccccc2c1)NC(=O)[C@@H](Cc1ccc2ccccc2c1)NC(=O)C1CCNCC1)C(N)=O (stereo in doubt) [(inip) b b F K amide, (inip)-DβNal-DβNal-Phe-Lys-amide]
[1]; rat, in vivo
  blood glucose: 542±37 mg %

## NCCCCC(NC(=O)[C@H](Cc1ccccc1)NC(=O)[C@@H](Cc1ccc2ccccc2c1)NC(=O)C(Cc1ccc2ccccc2c1)NC(=O)CCCN)C(N)=O (stereo partly drawn) [(Ab) b b F K amide, (4-aminobutanoyl)-DβNal-DβNal-Phe-Lys-amide] (H-[GABA][ξ2Nal][d2Nal]F[ξK]-NH2)
[2]; [7]
  EC50: 0.4 nM
[4]; Table III
  RAT IV ED50: 1 µg

## O=C(N[C@H](Cc1ccc2ccccc2c1)C(=O)N[C@H](Cc1ccc2ccccc2c1)C(=O)NC1CCNCC1)C1CCNCC1 [(inip) b b api]
[2]; [8]
  EC50: 2.7 nM
[4]; Table IV
  RAT IV ED50: 25 µg

## NC(=O)[C@H](Cc1ccccc1)NC(=O)[C@@H](CCc1ccccc1)NC(=O)[C@@H](Cc1ccc2ccccc2c1)NC(=O)C1CCNCC1 [(inip) b hf F amide] (H-[Inp][d2Nal][d(hPhe)]F-NH2)
[2]; [8]
  EC50: 14 nM
[4]; Table IV
  RAT IV ED50: 10 µg

## C[C@@](Cc1ccccc1)(NC(=O)[C@@H](Cc1ccc2ccccc2c1)NC(=O)[C@@H](Cc1ccc2ccccc2c1)NC(=O)C1CCNCC1)C(N)=O [(inip) b b amF amide] (H-[Inp][d2Nal][d2Nal][αMeF]-NH2)
[2]; [8]
  EC50: 0.5 nM
[4]; Table IV
  RAT IV ED50: 5 µg

## NCCCC[C@H](NC(=O)[C@H](Cc1ccccc1)NC(=O)[C@@H](Cc1ccc2ccccc2c1)NC(=O)[C@@H](Cc1ccc2ccccc2c1)NC(=O)CCN)C(N)=O [bA b b F K amide] (H-[βAla][d2Nal][d2Nal]FK-NH2)
[2]; [7]
  EC50: 4.8 nM
[4]; Table III
  RAT IV ED50: 6.7 µg

## NCCCCC(=O)N[C@H](Cc1ccc2ccccc2c1)C(=O)N[C@H](Cc1ccc2ccccc2c1)C(=O)N[C@@H](Cc1ccccc1)C(N)=O [(Ava) b b F amide] (H-[Ava][d2Nal][d2Nal]F-NH2)
[2]; [8]
  EC50: 17.1 nM
[4]; Table IV
  RAT IV ED50: 100 µg

## NCCCCC(=O)N[C@H](Cc1ccc2ccccc2c1)C(=O)N[C@H](Cc1ccc2ccccc2c1)C(=O)N[C@@H](Cc1ccc2ccccc2c1)C(=O)N[C@@H](CCCCN)C(N)=O [(Ava) b b B K amide] (H-[Ava][d2Nal][d2Nal][2Nal]K-NH2)
[2]; [7]
  EC50: 0.7 nM
[4]; Table III
  RAT IV ED50: 50 µg

## O=C(N[C@H](Cc1ccc2ccccc2c1)C(=O)NCCc1c[nH]c2ccccc12)C1CCNCC1 [(inip) b tra, (inip)-DβNal-[N-tryptaminyl] amide]
[2]; [9]
  EC50: 100 nM
[4]; Table V
  RAT IV ED50: 100 µg

## NC(=O)[C@H](Cc1cccc2ccccc12)NC(=O)[C@@H](Cc1ccc2ccccc2c1)NC(=O)[C@@H](Cc1ccc2ccccc2c1)NC(=O)C1CCNCC1 [(inip) b b npA amide] (H-[Inp][d2Nal][d2Nal][1Nal]-NH2)
[2]; [8]
  EC50: 0.2 nM
[4]; Table IV
  RAT IV ED50: 5 µg

## NC(=O)C[C@H](Cc1ccccc1)NC(=O)[C@@H](Cc1ccc2ccccc2c1)NC(=O)[C@@H](Cc1ccc2ccccc2c1)NC(=O)C1CCNCC1 [(inip) b b hcF amide, (inip)-DβNal-DβNal-(3(S)-3-benzyl-β-Ala)-amide] (H-[Inp][d2Nal][d2Nal][β3hF]-NH2)
[2]; [8]
  EC50: 0.2 nM
[4]; Table IV
  RAT IV ED50: 2.5 µg

## NCCCCC(=O)N[C@H](Cc1ccc2ccccc2c1)C(=O)N[C@H](Cc1ccc2ccccc2c1)C(=O)N[C@@H](Cc1ccccc1)C(=O)N[C@H](CCCCN)C(N)=O [(Ava) b b F k amide] (H-[Ava][d2Nal][d2Nal]F[dK]-NH2)
[2]; [7]
  EC50: 17 nM
[4]; Table III
  RAT IV ED50: 33.3 µg

## CN(CCc1ccc2ccccc2c1)C(=O)[C@@H](Cc1ccc2ccccc2c1)NC(=O)C1CCNCC1 [(inip) b men, (inip)-DβNal-[N-methyl, N-1-{2-(2-naphthyl)ethyl}] amide]
[2]; [9]
  EC50: 12 nM
[4]; Table V
  RAT IV ED50: 500 µg

## NCCCC[C@H](NC(=O)[C@H](Cc1ccccc1)NC(=O)[C@@H](Cc1c[nH]c2ccccc12)NC(=O)[C@@H](Cc1c[nH]c2ccccc12)NC(=O)CN)C(N)=O [G w w F K amide] (H-G[dW][dW]FK-NH2)
[2]; [7]
  EC50: 2.1 nM
[4]; Table III
  RAT IV ED50: 2.5 µg

## C[C@H](NC(=O)[C@@H](Cc1ccc2ccccc2c1)NC(=O)CCCCN)C(=O)N[C@@H](Cc1c[nH]c2ccccc12)C(=O)N[C@H](Cc1ccccc1)C(=O)N[C@@H](CCCCN)C(N)=O [(Ava) b A W f K amide, reference compound] (H-[Ava][d2Nal]AW[dF]K-NH2)
[2]; read-out: “Pit” Cell EC50, Table II, prior art compounds, GH release, 15 min incubation
  EC50: 0.2 nM
[4]; Table II, iv tail vein injection, anesthetized weanling female rats
  Rat IV ED50: 1.5 µg

## CN(C(=O)[C@@H](Cc1ccc2ccccc2c1)NC(=O)C1CCNCC1)[C@H](Cc1ccc2ccccc2c1)C(=O)NC1CCNCC1 [(inip) b nmb api, (inip)-DβNal-(N-Me-DβNal)-N-(4-piperidinyl) amide]
[2]; [8]
  EC50: 0.5 nM
[4]; Table IV
  RAT IV ED50: 2 µg

## NCCCCC(=O)N[C@H](Cc1ccc2ccccc2c1)C(=O)N[C@H](Cc1ccc2ccccc2c1)C(=O)N[C@@H](Cc1ccccc1)C(=O)N1CCC[C@H]1C(N)=O [(Ava) b b F P amide] (H-[Ava][d2Nal][d2Nal]FP-NH2)
[2]; [7]
  EC50: 51 nM
[4]; Table III
  RAT IV ED50: 50 µg

## NC(=O)[C@@H]1CCCN1C(=O)[C@@H](Cc1ccc2ccccc2c1)NC(=O)[C@@H](Cc1ccc2ccccc2c1)NC(=O)C1CCNCC1 [(inip) b b P amide] (H-[Inp][d2Nal][d2Nal]P-NH2)
[2]; [8]
  EC50: 9 nM
[4]; Table IV
  RAT IV ED50: 5 µg

## C[C@@H](N)C(=O)N[C@H](Cc1c[nH]c2ccccc12)C(=O)N[C@H](Cc1c[nH]c2ccccc12)C(=O)N[C@@H](Cc1ccccc1)C(=O)N[C@@H](CCCCN)C(N)=O [a w w F K amide] (H-[dA][dW][dW]FK-NH2)
[2]; [7]
  EC50: 4.1 nM
[4]; Table III
  RAT IV ED50: 1.47 µg

## CN(C(=O)CCCCN)[C@H](Cc1ccc2ccccc2c1)C(=O)N[C@H](Cc1ccc2ccccc2c1)C(=O)N[C@@H](Cc1ccccc1)C(N)=O [(Ava) nmb b F amide] (H-[Ava][dNMe2Nal][d2Nal]F-NH2)
[2]; [8]
  EC50: 1.6 nM
[4]; Table IV
  RAT IV ED50: 20 µg
